In the supplement of paper PMC10307832:

What was measured:
Test in all cases: relative viability (nuclei count vs DMSO), 5 days (fraction); higher = more cells survive
PAC-1 + Trametinib = compound: C=CCc1cccc(/C=N/NC(=O)CN2CCN(Cc3ccccc3)CC2)c1O [PAC-1] + CC(=O)Nc1cccc(-n2c(=O)n(C3CC3)c(=O)c3c(Nc4ccc(I)cc4F)n(C)c(=O)c(C)c32)c1 [Trametinib] (partner 0.02 µM)
Method in brief: (§1)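 Nuclei were stained with Hoechst during a one-step fixation (final 0.05% Triton X-100, 1% formaldehyde, 1 ug/ml Hoechst) carried out 5 days after dosing, then counted on 4× images. The cells, lung cancer lines in 1536-well plates, had been dosed by pin tool the day after seeding with one drug alone or a fixed anchor-drug dose plus five library-drug doses (not always all listed) in √10 steps. Relative viability is the nuclei count in treated wells divided by that in vehicle wells, and each value is the median of duplicate plates.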

PAC-1 + Linsitinib = compound: C=CCc1cccc(/C=N/NC(=O)CN2CCN(Cc3ccccc3)CC2)c1O [PAC-1] + C[C@]1(O)C[C@@H](c2nc(-c3ccc4ccc(-c5ccccc5)nc4c3)c3c(N)nccn32)C1 [Linsitinib] (partner 1 µM)
Method in brief: as §1

PAC-1 + Navitoclax = compound: C=CCc1cccc(/C=N/NC(=O)CN2CCN(Cc3ccccc3)CC2)c1O [PAC-1] + CC1(C)CCC(c2ccc(Cl)cc2)=C(CN2CCN(c3ccc(C(=O)NS(=O)(=O)c4ccc(N[C@H](CCN5CCOCC5)CSc5ccccc5)c(S(=O)(=O)C(F)(F)F)c4)cc3)CC2)C1 [Navitoclax] (partner 0.5 µM)
Method in brief: as §1

BMX-IN-1 + Dasatinib = compound: C=CC(=O)Nc1cc(-n2c(=O)ccc3cnc4ccc(-c5ccc(NS(C)(=O)=O)cc5)cc4c32)ccc1C [BMX-IN-1] + Cc1nc(Nc2ncc(C(=O)Nc3c(C)cccc3Cl)s2)cc(N2CCN(CCO)CC2)n1 [Dasatinib] (partner 0.075 µM)
Method in brief: as §1

Row | Cell Line | relative viability (PAC-1 + Trametinib; first compound 0.02 µM) | relative viability (PAC-1 + Trametinib; first compound 0.06325 µM) | relative viability (PAC-1 + Trametinib; first compound 0.2 µM) | relative viability (PAC-1 + Trametinib; first compound 2 µM) | relative viability (PAC-1 + Linsitinib; first compound 0.02 µM) | relative viability (PAC-1 + Linsitinib; first compound 0.06325 µM) | relative viability (PAC-1 + Linsitinib; first compound 0.2 µM) | relative viability (PAC-1 + Linsitinib; first compound 2 µM) | relative viability (PAC-1 + Navitoclax; first compound 0.02 µM) | relative viability (PAC-1 + Navitoclax; first compound 0.06325 µM) | relative viability (PAC-1 + Navitoclax; first compound 0.2 µM) | relative viability (PAC-1 + Navitoclax; first compound 2 µM) | relative viability (BMX-IN-1 + Dasatinib; first compound 0.02 µM) | relative viability (BMX-IN-1 + Dasatinib; first compound 0.2 µM) | relative viability (BMX-IN-1 + Dasatinib; first compound 0.6325 µM) | relative viability (BMX-IN-1 + Dasatinib; first compound 2 µM)
1 | NCI-H460 | 0.136 | 0.156 | 0.204 | 0.286 | 0.701 | 0.81 | 0.78 | 0.405 | 1.1 | 1.14 | 0.922 | 1.09 | 0.621 | 0.682 | 0.679 | 0.494
2 | NCI-H520 | 0.747 | 0.746 | 0.64 | 0.797 | 0.944 | 0.92 | 1 | 0.861 | 1.11 | 1.02 | 1.04 | 1.12 | 0.222 | 0.263 | 0.239 | 0.224
3 | NCI-H522 | 0.675 | 0.915 | 0.848 | 0.77 | – | – | – | – | – | – | – | – | 0.894 | 1.02 | 0.89 | 0.821
4 | NCI-H596 | 0.704 | 0.802 | 0.801 | 0.87 | 0.891 | 0.977 | 1.08 | 1.03 | 0.887 | 0.932 | 0.951 | 0.951 | 0.66 | 0.618 | 0.674 | 0.672
5 | NCI-H650 | 0.871 | 1.02 | 0.933 | 1.27 | 0.887 | 0.912 | 0.761 | 0.676 | – | – | – | – | 0.49 | 0.469 | 0.517 | 0.478
6 | NCI-H661 | 0.585 | 0.591 | 0.581 | 0.585 | 0.432 | 0.561 | 0.52 | 0.532 | – | – | – | – | 0.993 | 0.852 | 1 | 0.946
7 | NCI-H1299 | – | – | – | – | 0.947 | 0.963 | 0.953 | 0.96 | 1.04 | 1.03 | 1.06 | 1.04 | – | – | – | –
8 | NCI-H1563 | – | – | – | – | 1.15 | 1.32 | 1.28 | 1.19 | – | – | – | – | 0.441 | 0.463 | 0.423 | 0.428
9 | NCI-H1623 | – | – | – | – | – | – | – | – | – | – | – | – | 0.529 | 0.526 | 0.569 | 0.504
10 | NCI-H1648 | 0.388 | 0.525 | 0.445 | 0.504 | – | – | – | – | – | – | – | – | – | – | – | –
11 | NCI-H1650 | 0.538 | 0.54 | 0.335 | 0.542 | – | – | – | – | 1.18 | 1.15 | 1.22 | 1.04 | 0.299 | 0.307 | 0.423 | 0.294
12 | NCI-H1703 | – | – | – | – | 0.646 | 0.423 | 0.765 | 0.932 | 1.4 | 0.998 | 0.958 | 0.959 | – | – | – | –
13 | NCI-H2170 | 0.888 | 0.958 | 0.932 | 0.859 | – | – | – | – | 0.637 | 0.622 | 0.569 | 0.461 | 0.609 | 0.634 | 0.67 | 0.586
14 | NCI-H2342 | 1.16 | 0.816 | 0.697 | 0.83 | – | – | – | – | – | – | – | – | 0.31 | 0.326 | 0.307 | 0.327
15 | SW 900 | – | 0.8 | 0.686 | 0.817 | – | – | – | – | – | – | – | – | 0.568 | 0.835 | 0.521 | 0.714
